Data published in patent publication US6017877A, “Method and composition for treating thrombosis” (priority 1994, dated 2000).
“And” between values parts separate entries of the source, which are not always exact repeats. Equal entries are not always repeated. Where two headings read alike, the source gives them in different places.

What was measured:
platelets [1] = experiment: Platelet aggregation assay of Example XI; type: cell-based; conditions: for reactivity relative to 8X in platelet aggregation: fold more reactive than 8X
Description: (§1) Platelet aggregation was assessed using the method of Born, Nature 194:927-929 (1962), incorporated herein by reference. Briefly, the change in light transmission was measured through a stirred suspension of platelets in an aggregometer (Model 400 VS, Chrono-Log, Havertown, Pa., USA). […] In studies using thrombin, the PRP was gel-filtered on Sepharose 2B in divalent ion-free Tyrode's solution containing 2% BSA. For all studies, the reference standard was platelet-poor plasma, which was obtained by centrifuging PRP at 1000× g for 5 min.
(§2) (Platelet count was determined with the aid of a hemacytometer.) Peptides and stimulants were added to these suspensions in 1% dilutions. The PRP and gel-filtered platelets were used within three hours from the time of blood collection.

GP IIb/IIIa = GP IIb/IIIa (Homo sapiens, UniProt P05106+P08514); experiment: Inhibition of binding of various ligands to GP IIb/IIIa; conditions: fibrinogen vs fibronectin and vitronectin
Chain of GP IIb/IIIa (P08514 32-887 limits assumed): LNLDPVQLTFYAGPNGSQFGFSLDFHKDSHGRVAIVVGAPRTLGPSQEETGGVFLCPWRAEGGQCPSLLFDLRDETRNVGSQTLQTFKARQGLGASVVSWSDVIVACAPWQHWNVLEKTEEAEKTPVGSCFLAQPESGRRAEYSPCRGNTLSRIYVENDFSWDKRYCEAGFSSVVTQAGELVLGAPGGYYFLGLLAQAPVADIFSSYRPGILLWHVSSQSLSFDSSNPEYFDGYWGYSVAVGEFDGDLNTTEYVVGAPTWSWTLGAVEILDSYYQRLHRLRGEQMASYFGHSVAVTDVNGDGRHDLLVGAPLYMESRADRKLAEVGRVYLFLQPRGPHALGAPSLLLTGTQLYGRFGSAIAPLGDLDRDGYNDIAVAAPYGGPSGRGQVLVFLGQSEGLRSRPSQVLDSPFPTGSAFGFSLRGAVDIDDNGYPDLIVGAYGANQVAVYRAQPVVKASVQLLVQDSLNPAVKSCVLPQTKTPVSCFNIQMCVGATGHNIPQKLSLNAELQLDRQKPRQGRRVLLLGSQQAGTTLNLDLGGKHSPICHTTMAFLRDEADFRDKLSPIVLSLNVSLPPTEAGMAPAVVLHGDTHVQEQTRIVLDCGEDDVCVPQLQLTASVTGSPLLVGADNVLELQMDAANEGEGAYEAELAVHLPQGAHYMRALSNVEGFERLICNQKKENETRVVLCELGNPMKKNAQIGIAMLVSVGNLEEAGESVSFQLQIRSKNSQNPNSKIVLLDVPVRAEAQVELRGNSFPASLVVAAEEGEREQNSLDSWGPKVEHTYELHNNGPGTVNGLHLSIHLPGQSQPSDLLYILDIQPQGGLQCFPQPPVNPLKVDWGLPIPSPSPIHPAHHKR
Chain of GP IIb/IIIa (P08514 891-1039 partner limits assumed): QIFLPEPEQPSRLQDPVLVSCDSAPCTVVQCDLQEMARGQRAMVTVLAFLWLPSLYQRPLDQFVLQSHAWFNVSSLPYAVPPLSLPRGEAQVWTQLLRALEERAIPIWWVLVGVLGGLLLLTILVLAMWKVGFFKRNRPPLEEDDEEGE
Chain of GP IIb/IIIa (P05106 27-788): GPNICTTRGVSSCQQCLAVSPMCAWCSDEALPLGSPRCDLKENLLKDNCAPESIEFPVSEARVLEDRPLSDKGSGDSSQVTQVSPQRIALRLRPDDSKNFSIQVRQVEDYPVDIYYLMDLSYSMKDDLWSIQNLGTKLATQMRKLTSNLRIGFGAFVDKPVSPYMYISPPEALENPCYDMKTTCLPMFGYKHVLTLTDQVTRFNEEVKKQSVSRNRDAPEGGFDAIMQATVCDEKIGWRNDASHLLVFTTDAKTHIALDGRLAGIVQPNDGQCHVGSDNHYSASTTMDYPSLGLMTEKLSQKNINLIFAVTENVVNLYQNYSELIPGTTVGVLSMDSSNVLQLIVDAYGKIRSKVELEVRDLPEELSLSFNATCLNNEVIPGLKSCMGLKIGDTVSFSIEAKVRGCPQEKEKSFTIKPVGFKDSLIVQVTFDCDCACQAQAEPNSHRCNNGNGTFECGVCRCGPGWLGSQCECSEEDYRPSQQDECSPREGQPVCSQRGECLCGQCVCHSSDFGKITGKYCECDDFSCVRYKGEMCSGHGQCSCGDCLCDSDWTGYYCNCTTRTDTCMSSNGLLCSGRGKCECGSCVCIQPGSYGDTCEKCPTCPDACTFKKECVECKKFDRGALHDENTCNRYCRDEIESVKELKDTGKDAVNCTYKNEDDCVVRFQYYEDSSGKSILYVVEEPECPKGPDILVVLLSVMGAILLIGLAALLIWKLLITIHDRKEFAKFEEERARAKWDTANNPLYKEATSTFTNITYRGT

[2] = biological target: T1, vitronectin receptor (Vn-R) (Homo sapiens, UniProt P05106+P06756); experiment: VnR binding, ELISA or liposome attachment assay (Table I)
T1 construct: from tissue; host or cells: human placenta
T1 sequence (P06756 31-889 limits assumed): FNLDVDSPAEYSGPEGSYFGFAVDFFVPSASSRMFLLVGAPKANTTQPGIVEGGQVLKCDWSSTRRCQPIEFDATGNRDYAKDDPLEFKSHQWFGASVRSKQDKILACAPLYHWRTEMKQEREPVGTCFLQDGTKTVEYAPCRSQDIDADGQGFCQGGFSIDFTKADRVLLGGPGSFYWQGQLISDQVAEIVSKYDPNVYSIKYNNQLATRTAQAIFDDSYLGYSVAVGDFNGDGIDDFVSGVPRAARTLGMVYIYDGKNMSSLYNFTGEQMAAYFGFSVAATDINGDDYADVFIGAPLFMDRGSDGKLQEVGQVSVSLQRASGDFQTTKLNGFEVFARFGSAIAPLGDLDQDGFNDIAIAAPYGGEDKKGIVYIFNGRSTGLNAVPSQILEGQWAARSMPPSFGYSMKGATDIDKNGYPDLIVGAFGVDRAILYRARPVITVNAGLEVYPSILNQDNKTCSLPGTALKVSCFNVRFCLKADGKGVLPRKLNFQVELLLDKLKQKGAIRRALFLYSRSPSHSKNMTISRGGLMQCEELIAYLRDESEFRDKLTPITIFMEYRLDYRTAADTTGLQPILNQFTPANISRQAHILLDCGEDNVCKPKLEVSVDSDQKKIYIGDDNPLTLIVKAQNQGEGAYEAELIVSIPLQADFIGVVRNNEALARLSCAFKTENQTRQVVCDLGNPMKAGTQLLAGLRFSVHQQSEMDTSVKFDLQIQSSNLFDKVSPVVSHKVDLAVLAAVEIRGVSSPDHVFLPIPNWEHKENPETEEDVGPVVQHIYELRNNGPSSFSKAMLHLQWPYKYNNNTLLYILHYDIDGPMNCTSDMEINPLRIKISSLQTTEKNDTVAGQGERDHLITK
T1 sequence (P06756 891-1048 partner limits assumed): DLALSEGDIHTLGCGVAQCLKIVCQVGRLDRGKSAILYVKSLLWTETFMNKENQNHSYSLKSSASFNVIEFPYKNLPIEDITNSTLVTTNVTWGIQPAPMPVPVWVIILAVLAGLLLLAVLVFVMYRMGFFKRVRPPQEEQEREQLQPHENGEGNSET
T1 sequence (P05106 27-788): as the sequence (P05106 27-788) above
Description: Except where stated, all procedures were carried out at 4° C. The peptide column was washed with three volumes of Tris-buffered saline (TBS) containing 1 mM Ca^2+ and Ca^2+ and 25 mM OG and then with TBS containing 1 mM 25 mM octyl thioglucoside (OTG) at room temperature. […] Finally, Ca^2+ and Mg^+2 were added to eluted fractions to achieve final concentrations of 1 mM for both ions.
Maxisorp microtiter plates were coated with 2 μg/ml human vitronectin dissolved in PBS (50 ml/well) and stored overnight at 4° C. The plates were washed two times with PBS-0.05% Tween-20 (wash buffer) and blocked by incubating with about 150 μl/well of assay buffer (1%, BSA (RIA grade or better) in 50 mM Tris-HCl, 100 mM NaCl, 1 mM MgCl2, CaCl2, MnCl2 pH 7.4) for 60 minutes. Dilutions of standards were prepared and putative inhibitors (Table 2) were dissolved in assay buffer. The blocked plates were emptied and 20 μl/well of inhibitor or standard solution was added to each well. Twenty-five μl of a 30 μg/ml solution of purified αV β3 in assay buffer was pipetted into the coated plate. The final concentration of receptor in the assay well was about 15 μg/ml. The plate was incubated on a shaker for 60 minutes. Meanwhile, for each microtite plate, 6 ml buffer solution containing 1.5 μg/ml of mouse monoclonal antibody specific for β3 is prepared. To this solution was added the secondary antibody which is anti-mouse-Fc-HRP antibody conjugate. For example, for one plate, 6 ml of a 1.5 μg/ml mouse Mab solution was prepared to which was added 1 μl of anti-mouse-Fc-HRP antibody stock, (this represents a 1:6000 dilution of the antibody--HRP conjugate). This mixture was allowed to incubate during the receptor-inhibitor incubation. The assay plates were washed 4 times with PBS-Tween and 50 μl/well of the antibody mixture was then pipetted into the plate for a 60 minute incubation. The plate was washed 4 times and the color reaction was developed with 50 μl/well of 0.67 mg/ml o-phenyldiamine in PBS containing 0.012% H2 O2. Alternatively, 16 mM citric acid, 50 mM Na2 PO4 at pH 5.0 can be used as a substrate buffer. The reaction is stopped with 50 μl/well 1 M H2 SO4. The plates were read at 492-405 nm and the data analyzed by four-parameters fit.
Briefly, 1:4 mixture of labelled and unlabelled phosphatidylcholine (PC) liposomes was dissolved under nitrogen and diluted with an equal volume of purified receptor (purified as described in Example II) to achieve a fixed predetermined receptor-liposome concentration ratio. This mixture was then dialyzed overnight at 4° C. in phosphate buffered saline (PBS) containing 1 mM Ca^2+. An aliquot of the dialyzed sample was counted to assess radioactive content; the receptor-liposome mixture was then diluted to obtain a set radioactivity per unit volume. […]

platelets [3] = experiment: Baboon ex vivo platelet aggregation (ADP); type: in vivo; conditions: baboon animal 2, PRP, ADP 10 μm
Description: At one- and two-hour time points, template bleeding times were measured, and blood samples were drawn to assess the hematology aggregation studies. Platelet aggregation studies were performed as described in Example V using ADP as the stimulus.
In addition, platelet aggregation studies were conducted on PRP derived from the second animal. Whole blood was drawn at three time points (0, 1 and 2 hours) of both control and experimental shunts.

coronary thrombosis = experiment: Electrically induced canine coronary thrombosis, time to full occlusion; type: in vivo; conditions: dog
Description: Male mongrel dogs weighing 14 to 20 kg were selected based on proper aggregation of their platelets in response to arachidonic acid, collagen, and adenosine disphosphate (ADP) and based on similar weights and hemodynamic properties.
Before surgery, the animals were anesthetized with sodium pentobarbital (30 mg/kg, i.v.) and then intubated and ventilated on room air with positive pressure using a respirator (Harvard Apparatus, S. Natick, Mass.) at a volume of 30 ml/kg and a frequency of 12 breaths/min. Surgery, performed under aseptic conditions, was begun with the placement of cannulae into the left carotid artery and jugular vein for monitoring arterial blood pressure (Statham P23 pressure transducer, Gould, Inc., Cardiovascular Products, Oxnard, Calif.) and administering intravenous fluids.
The heart was exposed via a left thoracotomy through the 5th intercostal space. […]
Animals were randomly assigned to two treatment groups: vehicle control (i.e., normal saline) or RGD peptides at various concentrations. […] The anti-thrombotic effects of the peptides were monitored until 30 minutes after the occurrence of a persistent, occlusive thrombus or five hours after the initiation of electrical stimulation (whichever resulted first). […]
Coronary thrombosis was quantified as the time to full occlusion. […]

platelets [4] = experiment: Ex vivo platelet aggregation in canine coronary thrombosis model; conditions: dog; for reduction of ex vivo aggregation relative to control levels: 3 mg/kg; for ex vivo platelet aggregation by all three stimuli: 10 mg/kg
Description: For all ex vivo studies (see FIG. 3), control aggregation values were standardized to the percentages of light transmission observed in PRP and PPP samples (0% and 100%, respectively).
Animals were randomly assigned to two treatment groups: vehicle control (i.e., normal saline) or RGD peptides at various concentrations. Peptides were administered intra-atrially in both bolus and continuous injections. Each bolus injection consisted of 0.5 to 10 mg/kg and was administered 15 minutes before application of the current. A continuous infusion of the same peptide was then started immediately after completion of this initial injection. Animals received a 25 μg/kg/min to 200 μg/kg/min infusion. The anti-thrombotic effects of the peptides were monitored until 30 minutes after the occurrence of a persistent, occlusive thrombus or five hours after the initiation of electrical stimulation (whichever resulted first). If an occlusive thrombus had not developed within four hours after the initiation of current, the peptide infusion was stopped.
Platelet counts and ex vivo aggregation studies were performed one hour before and 1, 3, and 5 hours after application of anodal direct current.
Platelet aggregation was also determined ex vivo at one, three, and five hours after current application. For these studies, arachidonic acid, or collagen was again used to stimulate the platelets.

[5] = tested on: Gore-tex vascular graft thrombosis; experiment: Platelet and fibrinogen uptake by Gore-Tex grafts in baboon ex vivo shunt; conditions: baboon animal 2, 10 mg/kg bolus IV + 10 mg/kg/hr infusion for two hours
Description: Adult male baboons (weighing 16 to 25 kg) were used in these studies. These were sedated with ketamine hydrochloride (200 to 250 mg intramuscular injection) and maintained under anesthesia with sodium pentobarbital (50 to 75 mg administered intravenously as necessary).
Twenty-four hours before the ex vivo shunt was established, platelets were isolated from 500 ml of blood from the test animal and labelled with ca. 500 microcuries of indium-111 oxine (Medi+Physics, Emeryville, Calif.), which irreversibly and specifically binds to platelets with an efficiency of 50%. Immediately after labelling, these platelets were then injected back into the animal and allowed to circulate for 24 hours. Immediately before the start of the study, fibrinogen that had been isolated from the animal and labelled with iodine-131 (DuPont Nuclear, Boston, Mass.) was also injected back into the animal. Also at this time, baseline determinations of the clotting and template bleeding times were made, and blood samples were drawn for hematology studies.
To establish the ex vivo shunt, the femoral artery and vein were percutaneously cannulated with introducer catheters (KMA Inc., Mansfield, Mass.). […]
Platelet deposition onto the grafts was monitored by dynamic scanning with a gamma camera (Sigma 400, Ohio Nuclear, Inc., Sohon, Ohio), which detects the gamma radiation emitted by the ^111 indium-labelled platelets. […]

platelets [6] = experiment: Thrombin-stimulated platelet aggregation (Table I); type: cell-based, human; conditions: thrombin 2 U/ml, gel-filtered platelets
Description: as §1, with “Platelet aggregation assays were performed following the methods of this Example or those of Example IX.G. Platelet” for “Platelet”
as §2, with “All aggregation studies were performed at 37° C. with a constantly stirred suspension of 3×10^8 platelets/ml. (Platelet” for “(Platelet”
Peptide anti-aggregation potencies were determined from dose-responsive curves for the inhibition of the maximum aggregation responses stimulated by physiologic doses of ADP (10 μm) and thrombin (2 U/ml).

platelets [7] = type: cell-based, human; conditions: ADP 10 μm, platelet-rich plasma; read-out: ADP-Stimulated Aggregation (IC50)
Description: All aggregation studies were performed at 37° C. with a constantly stirred suspension of 3×10^8 platelets/ml. (Platelet count was determined with the aid of a hemacytometer.) Peptides and stimulants were added to these suspensions in 1% dilutions. The PRP and gel-filtered platelets were used within three hours from the time of blood collection.

[8] = Rabbit peripheral blood flow (PBF), laser dopler flow probe; type: in vivo; conditions: time 10 min, bolus dose printed with drug
Description: In an alternative series of experiments, (Table 2) PBF was measured quantitatively with a laser dopler flow probe (Perimed). The probe was positioned securely over the vascular bed of one ear and flow monitored continuously. Each inhibitor was infused and CBT measured in the opposing ear. No arterial catheter was placed for blood sampling, consequently XPA was measured in these animals.

Substance: (Mpr)RGD(O-Me-Y)RC-NH2 [16A]
- reactivity relative to 8X in platelet aggregation (platelets [1]): about two-fold

Substance: Ac--CNPRGD(Y--OMe)RCNH2 [8X]
- differential inhibition of ligand binding to GP IIb/IIIa (GP IIb/IIIa): inhibits the binding of fibrinogen to GP IIb/IIIa more than it inhibits the binding of fibronectin and vitronectin to the same integrin

Substance: FRGDSPDG
- IC50 [2]: 40 nM

Substance: G(Pen)GHRGDLRCA [2G]
- ex vivo platelet aggregation response (platelets [3]): completely unresponsive
- coronary thrombosis, time to full occlusion (coronary thrombosis; 10 mg/kg): did not significantly influence
- ex vivo ADP-stimulated aggregation (platelets [4]; 10 mg/kg, 1, 3 and 5 h): substantially inhibited
- reduction in labelled fibrinogen uptake by graft [5]: 78%
- reduction in labelled platelet uptake by graft [5]: 84%

Substance: GNPRGD(O-Me-Y)RD-NH2 [20Q]
- potency relative to 17J (platelets [1]; times more potent than 17J): about three
- potency relative to 18J (platelets [1]; times more potent than 18J): about 20

Substance: LRGDSPDG
- IC50 [2]: 200 nM

Substance: R2 (Pen)GRGDTPCA
- IC50 (platelets [6]): 2700 nM
- IC50 (platelets [7]): 8200 nM

Substance: R(Pen GRGDWPCR [4R]
- IC50 (platelets [6]): 530 nM
- coronary thrombosis, time to full occlusion (coronary thrombosis; 3 mg/kg): ineffective
- reduction of ex vivo aggregation relative to control levels (platelets [4]; one hour): 20-58%
- reduction of ex vivo aggregation relative to control levels (platelets [4]; three and five hours): 75-100% and 72-100%
- ex vivo platelet aggregation by all three stimuli (platelets [4]): unresponsive to all modes of stimulation at all time points

Substance: R(Pen)GHRGDWRCR [4Q]
- PBF [8]: 9 units
- ex vivo platelet activation by collagen (platelets [4]; 5 mg/kg): near-maximal inhibition
- ex vivo platelet response to ADP and AA (platelets [4]; 5 mg/kg, all three time points): completely unresponsive
- ex vivo platelet aggregation by all three stimuli (platelets [4]): prevented platelet aggregation by all three stimuli

Substance: RGD(O-Me-Y)RE-NH2 [21I]
- reactivity relative to 8X in platelet aggregation (platelets [1]): about three-fold

Substance: VRGDSPDG
- IC50 [2]: 240 nM

Substance: YRGDSPDG
- IC50 [2]: 80 nM
